What was measured:
Sarcoma S180 lines = details: cyclophosphamide alone
Description: Kunming Hybrid mice with weight of 18-22 g were inoculated with Sarcoma S180 lines.
The experimental medicament and animals of this experiment were the same as that of Experimental Example 2.

blood viscosity of rats = type: in vivo; details: 90 mg/kg i.v., once per day for 3 days
Description: (§1) All the animal groups were intravenously injected the medicaments through caudal vein with the said dose of 4 ml/kg, once per day for continuously 3 days. 30 minutes after the final injection, animals were anaesthetized with pentobarbital sodium (30.0 mg/kg). 2 ml blood was then drawn from the abdominal aorta for the measurement of the thrombosis in vitro and 3 ml blood (heparinized) was drawn for the measurement of blood viscosity.
Measurement of the blood viscosity: 0.8 ml blood was taken from the 3 ml blood sample (heparinized) to measure the whole blood viscosity. The rest of the sample was centrifuged at 650×g for 10 minutes. 0.8 ml supernatant was taken to measure the blood plasma viscosity.

Platelet Aggregation = assay: platelet aggregation of rabbits (Born Turbidimetry); type: in vivo; details: 45 mg/kg i.v. once per day for 3 days
Description: Before administration, the artery in ears was punctured and the blood was taken to measure the platelet aggregation rate. According to the level of platelet aggregation and the body weight, the 48 rabbits were randomly divided into 6 groups (8 rabbits per group):
The administration groups were administered medicaments intravenously through ear edges with the said dosages, and the Control group was injected with equivalent volume of 0.9% sodium chloride, once per day for continuously 3 days. After the final medicaments administration, the artery in ears was punctured, the blood sample was taken and the platelet aggregation rate was measured.
The artery in ears was punctured with a siliconized injector to take blood sample, which was anticoagulated with the citron sodium solution (blood:anticoagulant=9:1). The blood sample solution was centrifuged at 200×g for 8 minutes, and the supernatant, that is, the Platelet Rich Plasma (PRP) was taken. The rest of the solution was centrifuged at 2200×g for 10 minutes, and the top clear part, that is, the Platelet Poor Plasma (PPP) was taken. The count of Platelets in PRP was about 4.0×10^5/mm^3. According to the Born Turbidimetry, the turbidity tube with 200 μl PRP and a small magnetic stick was placed in the platelet aggregation instrument and kept at 37° C. for one minute. After PPP being standardized, an inducer was added with stirring to induce the aggregation. The end concentration of the inducer is: 47.6 μM/L (ADP), 782.0 μM/L (M), and […] (Collagen). The influence of the medicaments upon the Platelet Aggregation was analyzed according to the aggregation curves and maximal aggregation rate printed by the instrument. The calculating formula for maximal aggregation rate was as follows:
aggregation=Transmittance after PRP Aggregation−Transmittance before PRP Aggregation×100% rate Transmittance of PPP−Transmittance before PRP Aggregation

thrombosis in vitro = thrombosis in vitro of rats (Chandler method); type: in vivo; details: 90 mg/kg i.v., once per day for 3 days
Description: as §1
Measurement of the thrombuses in vitro: According to Chandler method in vitro, the blood was immediately filled and sealed in a rotating ring with the volume less than ½ ring (1.8 ml). It was placed on a thrombosis Instrument and rotated for 10 minutes (with experimental temperature of 37° C.). Then the thrombus was spilled out and washed with physiological saline. The length was measured and the wet quality was weighed. The thrombus bar was placed in an 80° C. oven for 3 hours. It was weighed after the weight getting stable.

SMILES | tumor body (M ± SD) (Sarcoma S180 lines) [volume %] | Rate of Inhibiting tumors (Sarcoma S180 lines; compared with the Blank Control group) [%Δ] | Blood viscosity (100 S^−1) (blood viscosity of rats) | Whole blood viscosity, High shearing (200 S^−1) (blood viscosity of rats) [CP] | Whole blood viscosity, Low shearing (5 S^−1) (blood viscosity of rats) [CP] | Whole blood viscosity, Middle shearing (30 S^−1) (blood viscosity of rats) [CP] | Whole blood viscosity, Middle shearing (100 S^−1) (blood viscosity of rats) [CP] | Aggregation Rate After administration (Platelet Aggregation; Inducer AA) [%] | Aggregation Rate Value Difference (after − before) (Platelet Aggregation; Inducer AA) [%] | Aggregation Rate After administration (Platelet Aggregation; Inducer ADP) [%] | Aggregation Rate Value Difference (after − before) (Platelet Aggregation; Inducer ADP) [%] | Aggregation Rate After administration (Platelet Aggregation; Inducer Collagen) [%] | Aggregation Rate Value Difference (after − before) (Platelet Aggregation; Inducer Collagen) [%] | Thrombus Dry weight (thrombosis in vitro) [mg] | Thrombus Length (thrombosis in vitro) [mm] | Thrombus Wet weight (thrombosis in vitro) [mg]
O=P1(N(CCCl)CCCl)NCCCO1 (stereo not shown) [cyclophosphamide] | 0.89 ± 0.55 | 65 | – | – | – | – | – | – | – | – | – | – | – | – | – | –
CC(=O)Oc1ccccc1C(=O)O.NCCCCC(N)C(=O)O (racemic) [Aspirin-DL-Lysine] | – | – | 2.38 ± 1.12 | 3.37 ± 0.58 | 6.35 ± 1.03 | 4.71 ± 0.95 | 3.81 ± 0.91 | 0.24 ± 0.69 | −63.65 ± 7.05 | 57.78 ± 6.01 | 8.85 ± 6.37 | 45.29 ± 5.72 | −21.19 ± 4.24 | 18.9 ± 1.4 | 18.8 ± 1.5 | 100.1 ± 12.5
